Results from ChEMBL document CHEMBL1201862, “PubChem BioAssay data set” (2004).
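Grown in 96-well plates, cells were treated for 48 hours with each compound at five concentrations. Insufficient inhibition: endpoint recorded as highest concentration tested. Abbreviation: GI50, concentration required for 50% inhibition of growth.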 Active and inactive are the calls of the source. No stated cut-off is given here; in the data, active = GI50 up to about 1.1 µM and inactive = higher.

Legend:
Assay in all cases: NCI-60 cell line screen, 48 h
MOLT-4 = system: MOLT-4
SN12C = system: SN12C
MDA-MB-435 = system: MDA-MB-435
NCI-H460 = system: NCI-H460
K562 = system: K562
EKVX = system: EKVX
HCT-116 = system: HCT-116
BT-549 = system: BT-549
Hs-578T = system: Hs-578T
HCC 2998 = system: HCC 2998
SK-MEL-28 = system: SK-MEL-28
OVCAR-3 = system: OVCAR-3
UO-31 = system: UO-31
HOP-62 = system: HOP-62
LOX IMVI = system: LOX IMVI
HCT-15 = system: HCT-15
OVCAR-5 = system: OVCAR-5
UACC-62 = system: UACC-62
NCI/ADR-RES = system: NCI/ADR-RES
Malme-3M = system: Malme-3M

Measured: GI50

C#C[C@@H](OC(=O)c1ccc([N+](=O)[O-])cc1)[C@@H]1C[C@H]2O[C@@H]([C@H](C/C=C/CC)OC(=O)c3ccc([N+](=O)[O-])cc3)C[C@H]2O1
inactive: MOLT-4 > 100 µM | SN12C > 100 µM | MDA-MB-435 > 100 µM | NCI-H460 > 100 µM | K562 > 100 µM | EKVX > 100 µM | HCT-116 > 100 µM | BT-549 > 100 µM | Hs-578T > 100 µM | HCC 2998 > 100 µM | SK-MEL-28 > 100 µM | OVCAR-3 > 100 µM | UO-31 > 100 µM | HOP-62 > 100 µM | LOX IMVI > 100 µM | OVCAR-5 > 100 µM | UACC-62 > 100 µM | NCI/ADR-RES > 100 µM | Malme-3M > 100 µM
> 100 µM: HCT-15

O=C(CCl)Nc1ccc(-c2nc3ccccc3s2)cc1
2.18 µM: HCT-15
active: LOX IMVI 0.847 µM
inactive: MOLT-4 1.74 µM | SN12C 1.87 µM | MDA-MB-435 4.03 µM | NCI-H460 2.84 µM | K562 1.91 µM | EKVX 6.97 µM | HCT-116 2.16 µM | BT-549 1.6 µM | Hs-578T 5.96 µM | HCC 2998 2.51 µM | SK-MEL-28 4.12 µM | OVCAR-3 1.82 µM | UO-31 13 µM | HOP-62 3.72 µM | OVCAR-5 5.82 µM | UACC-62 2.22 µM | NCI/ADR-RES 4.59 µM | Malme-3M 2.07 µM

COc1cc(C2S/C(=C/c3ccccc3)C(=O)N2c2ccccn2)cc(OC)c1OC (configuration not stated)
12.8 µM: HCT-15
inactive: MOLT-4 9.55 µM | SN12C 15.3 µM | MDA-MB-435 11.5 µM | K562 11.9 µM | EKVX 24.4 µM | HCT-116 7.16 µM | BT-549 13.9 µM | Hs-578T 20.2 µM | HCC 2998 15.7 µM | SK-MEL-28 23 µM | OVCAR-3 12.4 µM | UO-31 13.5 µM | HOP-62 18.6 µM | LOX IMVI 9.59 µM | OVCAR-5 20.8 µM | UACC-62 14.7 µM | NCI/ADR-RES 19.5 µM | Malme-3M 13.4 µM

CCOC(=O)COc1ccc(/C=C/C(=O)c2ccc(OC)cc2)cc1
24.4 µM: HCT-15
inactive: MOLT-4 42.9 µM | SN12C 19 µM | MDA-MB-435 16.8 µM | K562 40.6 µM | EKVX 27.8 µM | HCT-116 21.3 µM | BT-549 28.5 µM | Hs-578T 25.9 µM | HCC 2998 23.7 µM | SK-MEL-28 19.3 µM | OVCAR-3 30 µM | UO-31 19.3 µM | HOP-62 20.8 µM | LOX IMVI 16.3 µM | OVCAR-5 37.4 µM | UACC-62 22.5 µM | NCI/ADR-RES 44.7 µM | Malme-3M 28.2 µM

CC(C)[C@H]1NC(=O)[C@H]2N=C(O[C@@H]2C)[C@@H]2CCCN2C(=O)[C@H](Cc2ccccc2)NC(=O)[C@@H]2COC(=N2)[C@@H](Cc2ccccc2)NC(=O)[C@@H]2COC1=N2
> 100 µM: HCT-15
inactive: MOLT-4 > 100 µM | SN12C > 100 µM | MDA-MB-435 > 100 µM | K562 > 100 µM | EKVX > 100 µM | HCT-116 > 100 µM | BT-549 > 100 µM | Hs-578T > 100 µM | HCC 2998 > 100 µM | SK-MEL-28 > 100 µM | OVCAR-3 > 100 µM | UO-31 > 100 µM | HOP-62 > 100 µM | LOX IMVI > 100 µM | OVCAR-5 > 100 µM | UACC-62 > 100 µM | NCI/ADR-RES > 100 µM | Malme-3M > 100 µM

O=C1NC2=NN=C(c3ccc(Br)cc3)CN2NC12c1ccccc1-c1ccccc12
> 100 µM: HCT-15
inactive: SN12C > 100 µM | MDA-MB-435 > 100 µM | NCI-H460 > 100 µM | K562 > 100 µM | EKVX > 100 µM | HCT-116 > 100 µM | BT-549 > 100 µM | Hs-578T 37 µM | HCC 2998 > 100 µM | SK-MEL-28 > 100 µM | OVCAR-3 > 100 µM | UO-31 > 100 µM | HOP-62 > 100 µM | LOX IMVI > 100 µM | OVCAR-5 > 100 µM | UACC-62 > 100 µM | NCI/ADR-RES > 100 µM | Malme-3M > 100 µM

CCCCn1c(C)c(C(=O)OCC)c2cc(OCc3ccc(C(=O)Nn4c(C)ccc4C)cc3)c(Br)cc21
> 100 µM: HCT-15
inactive: MOLT-4 > 100 µM | SN12C > 100 µM | MDA-MB-435 > 100 µM | NCI-H460 > 100 µM | K562 > 100 µM | EKVX > 100 µM | HCT-116 > 100 µM | BT-549 > 100 µM | Hs-578T > 100 µM | HCC 2998 > 100 µM | SK-MEL-28 > 100 µM | OVCAR-3 > 100 µM | HOP-62 > 100 µM | LOX IMVI > 100 µM | OVCAR-5 > 100 µM | UACC-62 > 100 µM | NCI/ADR-RES > 100 µM | Malme-3M > 100 µM

CC[C@@H]1CN2CCC1C[C@@H]2C(O)c1ccnc2ccc(OCCN3CCN(CCOc4ccc5nccc(C(O)[C@@H]6C[C@@H]7CCN6C[C@@H]7CC)c5c4)CC3)cc12 (some centres not stated)
inactive: MOLT-4 6.53 µM | SN12C 14.3 µM | MDA-MB-435 13.8 µM | NCI-H460 17.3 µM | K562 2.63 µM | EKVX 17.1 µM | HCT-116 14.2 µM | BT-549 19.1 µM | Hs-578T 15.3 µM | HCC 2998 9.48 µM | SK-MEL-28 17.1 µM | OVCAR-3 19.6 µM | HOP-62 18.5 µM | LOX IMVI 14.8 µM | OVCAR-5 18.6 µM | UACC-62 16.1 µM | NCI/ADR-RES > 100 µM | Malme-3M 24.8 µM
24.2 µM: HCT-15

CCC(C#N)N(Cc1cccc(CN(C(C)=O)C(C#N)CC)c1)C(C)=O (configuration not stated)
inactive: MOLT-4 5.52 µM | SN12C > 100 µM | MDA-MB-435 > 100 µM | K562 > 100 µM | EKVX > 100 µM | HCT-116 > 100 µM | BT-549 > 100 µM | Hs-578T > 100 µM | HCC 2998 97.1 µM | OVCAR-3 > 100 µM | UO-31 > 100 µM | HOP-62 > 100 µM | LOX IMVI > 100 µM | OVCAR-5 > 100 µM | UACC-62 > 100 µM | NCI/ADR-RES 84.1 µM | Malme-3M > 100 µM
42.9 µM: HCT-15

c1ccc(C2=Nc3cccc4cccc(c34)N2)cc1
inactive: SN12C > 78.7 µM | MDA-MB-435 48.8 µM | NCI-H460 57 µM | K562 32 µM | EKVX > 51.1 µM | HCT-116 23.3 µM | BT-549 > 44.2 µM | Hs-578T 58.1 µM | HCC 2998 43.9 µM | SK-MEL-28 > 79.1 µM | OVCAR-3 23.7 µM | UO-31 21.3 µM | HOP-62 > 100 µM | LOX IMVI 23.5 µM | OVCAR-5 69.5 µM | UACC-62 37.9 µM | NCI/ADR-RES 30.8 µM | Malme-3M 43.5 µM
28.6 µM: HCT-15

COc1cc2ccc1OCc1cccc(n1)COc1ccc(cc1OC)/C=N\CCNCCNCC/N=C\2
> 100 µM: HCT-15
inactive: MOLT-4 46.5 µM | SN12C > 100 µM | MDA-MB-435 > 100 µM | NCI-H460 > 100 µM | K562 > 100 µM | EKVX > 100 µM | HCT-116 > 100 µM | BT-549 > 100 µM | Hs-578T > 100 µM | HCC 2998 > 100 µM | OVCAR-3 > 100 µM | UO-31 > 100 µM | HOP-62 > 100 µM | LOX IMVI > 100 µM | OVCAR-5 > 100 µM | UACC-62 > 100 µM | NCI/ADR-RES > 100 µM | Malme-3M > 100 µM

COc1ccc(N2C(=O)CC(Cl)C2=O)cc1 (configuration not stated)
17.5 µM: HCT-15
inactive: SN12C 17.5 µM | MDA-MB-435 > 100 µM | NCI-H460 > 100 µM | K562 6.05 µM | EKVX > 100 µM | HCT-116 18.2 µM | BT-549 > 100 µM | Hs-578T > 100 µM | HCC 2998 20.4 µM | SK-MEL-28 16.6 µM | OVCAR-3 15.2 µM | UO-31 18.7 µM | HOP-62 > 100 µM | LOX IMVI 23.3 µM | OVCAR-5 18.2 µM | UACC-62 20.2 µM | NCI/ADR-RES 32.4 µM | Malme-3M 17.5 µM

Cc1cccc2c(=O)c3cccc([C@H](C)C(=O)O)c3oc12
> 100 µM: HCT-15
inactive: MOLT-4 > 100 µM | SN12C > 100 µM | MDA-MB-435 > 100 µM | NCI-H460 > 100 µM | K562 > 100 µM | EKVX > 100 µM | HCT-116 > 100 µM | BT-549 > 100 µM | Hs-578T > 100 µM | HCC 2998 > 100 µM | SK-MEL-28 > 100 µM | OVCAR-3 > 100 µM | UO-31 > 100 µM | HOP-62 > 100 µM | LOX IMVI > 100 µM | UACC-62 > 100 µM | NCI/ADR-RES > 100 µM | Malme-3M > 100 µM

COc1cc2c(cc1OC)[C@@H]1[C@H](C#N)C(=O)C(C)(C)N1CC2
inactive: MOLT-4 > 100 µM | SN12C > 100 µM | MDA-MB-435 > 100 µM | NCI-H460 > 100 µM | K562 > 100 µM | EKVX > 100 µM | HCT-116 > 100 µM | BT-549 > 100 µM | Hs-578T > 100 µM | HCC 2998 > 100 µM | SK-MEL-28 > 100 µM | OVCAR-3 > 100 µM | UO-31 > 100 µM | LOX IMVI > 100 µM | OVCAR-5 > 100 µM | UACC-62 > 100 µM | NCI/ADR-RES > 100 µM | Malme-3M > 100 µM
> 100 µM: HCT-15
